Reference: patent US20030153051A1, “Cholesterol oxidase” (priority 1998, published 2003)
Entries after “also recorded” stand apart in the source; their conditions may differ.

How the values were obtained:
[1] = system: cholesterol oxidase derived from ST-200 strain; assay: Effect of metal ions and the like on enzyme activity; assay type: biochemical, Pseudomonas sp. ST-200; conditions: for Relative activity (%): pH 7; for Inhibition of enzyme activity (in words): 1 mM
[2] = system: cholesterol oxidase derived from Brevibacterium sp.; assay: Effect of organic solvents on enzyme activity (Brevibacterium sp.); assay type: biochemical; conditions: organic solvent 50% by volume of reaction solution; pH 7, 30° C.; no solvent = 1
[3] = system: cholesterol oxidase derived from Pseudomonas sp.; assay: Effect of organic solvents on enzyme activity (Pseudomonas sp.); assay type: biochemical; conditions: organic solvent 50% by volume of reaction solution; pH 7, 30° C.; no solvent = 1
[4] = system: cholesterol oxidase derived from Streptomyces sp.; assay: Effect of organic solvents on enzyme activity (Streptomyces sp.); assay type: biochemical; conditions: organic solvent 50% by volume of reaction solution; pH 7, 30° C.; no solvent = 1
[5] = system: cholesterol oxidase derived from Nocardia erythropolis; assay: Effect of organic solvents on enzyme activity (Nocardia erythropolis); assay type: biochemical; conditions: organic solvent 50% by volume of reaction solution; pH 7, 30° C.; no solvent = 1
[6] = system: cholesterol oxidase derived from ST-200 strain; assay: Effect of organic solvents on enzyme activity (ST-200); assay type: biochemical, Pseudomonas sp. ST-200; conditions: for Relative activity, ST-200: organic solvent 50% by volume of reaction solution, pH 7, 30° C., no solvent = 1; for Reaction velocity in solvent compared to cholesterol oxidases of Nocardia erythropolis, Pseudomonas sp., Streptomyces sp., Brevibacterium sp. (in words): organic solvent 50% by volume, 30° C., pH 7
[7] = system: cholesterol oxidase derived from Pseudomonas sp. ST-200 (FERM BP-6661); assay: Effect of metal ions and the like (additives) on enzyme activity; assay type: biochemical; conditions: additive at 1 mM; activity without additive = 100; cholesterol substrate, 30° C., pH 7
Method: Effect of metal ions and the like on the activity of the enzyme obtained in Example 1 was studied. Enzyme activity was measured as described in Test Example 1 at 30° C. at pH 7 after adding various metal compounds, to a final concentration of […], to the reaction system.

[8] = system: cholesterol oxidase derived from ST-200 strain; assay: Substrate specificity of enzyme; assay type: biochemical, Pseudomonas sp. ST-200; conditions: for Relative activity (%): various substrates, 30° C., pH 7, enzyme activity with cholesterol set to be 100
[9] = additive 1 mM, 30° C., cholesterol as substrate, activity without additive set to be 100

Question: With `c1ccc(-c2ccccn2)nc1` [α,α-dipyridyl, reference compound] as the compound, how does the “Relative activity (%)” value [1] read?
Answer: Its value is 98%.

Question: What does the source list for `C1CCCCCCC1` [Cyclooctane]?
Answer: Relative activity, Brevibacterium sp. [2]: 0.2; Relative activity, Pseudomonas sp. [3]: 0.8; Relative activity, Streptomyces sp. [4]: 0.4; Relative activity, Nocardia erythropolis [5]: 1.1; Effect of organic solvent on reaction velocity (in words) [6]: increased; Relative activity, ST-200 [6]: 1.4; Reaction velocity in solvent compared to cholesterol oxidases of Nocardia erythropolis, Pseudomonas sp., Streptomyces sp., Brevibacterium sp. (in words) [6]: higher reaction velocity

Question: With `[Cl][Hg][Cl]` [Mercury chloride] as the compound, how does the “Relative activity (%)” value [1, 9] read?
Answer: Its value is 0%.

Question: What about the “Inhibition of enzyme activity (in words)” value ([1]; cholesterol as substrate) of the same compound?
Answer: Its value is “inhibited; also recorded: strongly inhibited”.

Question: Which “Relative activity (%)” value [1] does the source give for `Oc1cccc2cccnc12` [8-hydroxyquinoline, reference compound] here?
Answer: Its value is 85%.

Question: Which “Relative activity (%)” value [1] does the source give for `[Cl][Ni][Cl]` [Nickel chloride] here?
Answer: Its value is 90%.

Question: Which results are given for `c1ccc(Cc2ccccc2)cc1` [Diphenylmethane]?
Answer: Relative activity, Brevibacterium sp. [2]: 0.8; Relative activity, Pseudomonas sp. [3]: 1.5; Relative activity, Streptomyces sp. [4]: 1.0; Relative activity, Nocardia erythropolis [5]: 1.6; Effect of organic solvent on reaction velocity (in words) [6]: increased; Relative activity, ST-200 [6]: 3.1; Reaction velocity in solvent compared to cholesterol oxidases of Nocardia erythropolis, Pseudomonas sp., Streptomyces sp., Brevibacterium sp. (in words) [6]: higher reaction velocity

Question: With `O=S(=O)([O-])[O-].[Cu+2]` [Copper sulfate] as the compound, how does the “Relative activity (%)” value [1, 9] read?
Answer: The value was 105%.

Question: With `c1ccc(-c2ccccn2)nc1` [α,α-dipyridyl] as the compound, how does the Relative activity [7] read?
Answer: Its Relative activity is 98%.

Question: How did the “Action of the enzyme on the substrate (in words)” value [8] turn out when `CC(C)CCC[C@@H](C)[C@H]1CC[C@H]2[C@@H]3CC[C@H]4C[C@@H](O)CC[C@]4(C)[C@H]3CC[C@]12C` [β-cholestanol] was run?
Answer: Its value is “strongly oxidized”.

Question: What about the “Relative activity (%)” value [8] of the same compound?
Answer: The value was 69%.

Question: For `c1cnc2c(c1)ccc1cccnc12` [o-phenanthroline], which Relative activity [7] is on record?
Answer: The Relative activity was 92%.

Question: How did the “Relative activity, Brevibacterium sp.” value [2] turn out when `Cc1ccc(C)cc1` [Paraxylene] was run?
Answer: Its value is 0.7.

Question: What about the “Relative activity, Pseudomonas sp.” value [3] of the same compound?
Answer: The value was 1.5.

Question: What about the “Relative activity, Streptomyces sp.” value [4] of the same compound?
Answer: The value was 1.1.

Question: What about the “Relative activity, Nocardia erythropolis” value [5] of the same compound?
Answer: Its value is 1.6.

Question: And the “Effect of organic solvent on reaction velocity (in words)” value [6]?
Answer: Its value is “increased”.

Question: What about the “Relative activity, ST-200” value [6] of the same compound?
Answer: Its value is 3.4.

Question: What about the “Reaction velocity in solvent compared to cholesterol oxidases of Nocardia erythropolis, Pseudomonas sp., Streptomyces sp., Brevibacterium sp. (in words)” value [6] of the same compound?
Answer: Its value is “higher reaction velocity”.

Question: `O=[N+]([O-])[O-].[Ag+]` [Silver nitrate] was tested. Which “Relative activity (%)” value [1, 9] did it give?
Answer: The value was 2%.

Question: What about the “Inhibition of enzyme activity (in words)” value ([1]; cholesterol as substrate) of the same compound?
Answer: The value was “inhibited; also recorded: strongly inhibited”.

Question: How did the “Action of the enzyme on the substrate (in words)” value [8] turn out when `CC(C)CCC[C@@H](C)[C@H]1CC[C@H]2[C@@H]3CC=C4C[C@H](O)CC[C@]4(C)[C@H]3CC[C@]12C` [Epicholesterol, Cholest-5-en-3α-ol] was run?
Answer: Its value is “does not act on; also recorded: did not act on”.

Question: And the “Relative activity (%)” value [8]?
Answer: The value was 0%.

Question: With `O=C(O)CN(CCN(CC(=O)O)CC(=O)O)CC(=O)O` [EDTA] as the compound, how does the Relative activity [7] read?
Answer: The Relative activity was 88%.
